Results on 16 molecules are retold here after ChEMBL document CHEMBL1138457, “Design and synthesis of an orally bioavailable and selective peptide epoxyketone proteasome inhibitor (PR-047)” (J Med Chem, 2009).

The nature of data set [1]: Inhibition of chymotrypsin-like activity of human 20S proteasome by spectrofluorimetry.
Data set [2] in a line: Chemical stability in simulated intestinal fluid assessed as compound remaining at 4 uM after 15 mins. The class given is physicochemical. As to conditions: read-out: Stability.
A short description of data set [3]: Inhibition of chymotrypsin-like activity of 20S proteasome in human MOLT4 cells after 1 hr by […]. The class given is cell-based. The following applies: MOLT-4, 1 h. For orientation: In ATP-based viability assays light output follows the ATP content of the culture.
Data set [4] can be described thus: Cytotoxicity against multidrug resistance transporter expressing doxorubicin resistant human MESSA cells assessed as cell viability after 72 hrs by CellTiter-Glo luminescent assay. Type of data set: functional, cell-based. The following applies: MES-SA.
Data set [5] can be described thus: Cytotoxicity against human MESSA cells assessed as cell viability after 72 hrs by CellTiter-Glo luminescent assay. Type of data set: functional, cell-based. The following applies: MES-SA.
Data set [6] in a line: Metabolic stability in mouse liver microsomes assessed as extraction ratio at 1 uM. The class given is ADME, Microsome. In general terms: Liver microsomes are vesicles of endoplasmic reticulum, rich in cytochrome P450 enzymes.
Data set [7] concerns Mus musculus. The experiment in a line: Inhibition of chymotrypsin-like activity of 20S proteasome in BALB/c mouse adrenal gland at 20 mg/kg, po after 1 hr. Type of data set: functional. Also on record: scale not given: the % may be the effect or the level left.
Data set [8] can be described thus: Metabolic stability in human liver microsomes assessed as extraction ratio at 1 uM. The class given is ADME, Microsome.
The nature of data set [9]: Solubility in ethanol-PS80 citrate buffer at pH 3.5 by HPLC analysis. The class given is physicochemical.
Data set [10] deals with Mus musculus. The experiment in a line: Inhibition of chymotrypsin-like activity of 20S proteasome in BALB/c mouse adrenal gland 40 mg/kg, po after 1 hr. The class given is functional. Also on record: scale not given: the % may be the effect or the level left.
Data set [11] has as its target T1, Proteasome subunit beta type-8 (Homo sapiens, UniProt P28062).
T1 sequence (P28062 whole entry): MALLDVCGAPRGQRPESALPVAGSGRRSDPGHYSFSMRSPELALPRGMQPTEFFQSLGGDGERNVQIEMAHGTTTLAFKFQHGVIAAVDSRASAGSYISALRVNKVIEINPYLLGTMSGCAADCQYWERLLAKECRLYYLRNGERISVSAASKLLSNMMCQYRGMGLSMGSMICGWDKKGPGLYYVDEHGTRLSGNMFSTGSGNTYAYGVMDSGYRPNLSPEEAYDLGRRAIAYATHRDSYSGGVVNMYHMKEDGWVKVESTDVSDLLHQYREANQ
Description: Inhibition of chymotrypsin-like activity of LMP7 immunoproteasome by proteasome active site ELISA

In data set [12] the test system is Mus musculus. The experiment in a line: Inhibition of chymotrypsin-like activity of 20S proteasome in BALB/c mouse adrenal gland at 10 mg/kg, po after 1 hr. Type of data set: functional. Also on record: scale not given: the % may be the effect or the level left.
Data set [13] in a line: Inhibition of chymotrypsin-like activity of human 20S proteasome beta 5 subunit by proteasome active site ELISA. On the technique in general: In an ELISA, binding on a coated surface is turned into a signal by an enzyme label.

A word on the IC50: it is the point on the concentration scale where inhibition reaches its midpoint. Regarding `COC[C@H](NC(=O)c1cc(C)on1)C(=O)N[C@@H](CC1CCCCC1)C(=O)N[C@@H](CC(C)C)C(=O)[C@@]1(C)CO1`, the IC50 in [1] is 13 nM; in data set [3], 78 nM; in [4] it was 353 nM; in data set [5], 210 nM. Besides, in [2], the remaining at 0.25 h, 4 µM was 75%. For the same molecule, the figures for the hepatic extraction ratio at 1 µM in data set [6] and in data set [8] were 0.96 dimensionless ratio and 0.94 dimensionless ratio, respectively. The same molecule showed an Activity with Mus musculus [7] of 56%.

The term solubility denotes the concentration that dissolves in the medium under given conditions. As for `CC(C)C[C@H](NC(=O)c1cc(Cn2ccnc2)on1)C(=O)N[C@@H](Cc1ccccc1)C(=O)N[C@@H](CC(C)C)C(=O)[C@@]1(C)CO1`, the half-maximal inhibitory concentration (IC50) in data set [1] was 15 nM; in data set [3], 59 nM; in data set [4], greater than 1000 nM; in data set [5], 52 nM. Further, the solubility in data set [9] is no less than 1000 µg/mL. This molecule registered an Activity in the data set with Mus musculus [10] of 110%.

Consider `COC[C@H](NC(=O)c1ccon1)C(=O)N[C@@H](COC)C(=O)N[C@@H](Cc1ccccc1)C(=O)[C@@]1(C)CO1`, for which the IC50 was determined as 73 nM in [1]; 47 nM in data set [3]; 756 nM in [4]; 93 nM in data set [11]; 43 nM in data set [5]; 44 nM in data set [13]. In addition, the remaining at 0.25 h, 4 µM in data set [2] was 85%. The Activity in the data set with Mus musculus [12] is recorded as 34%. In addition, the results for the hepatic extraction ratio at 1 µM in data set [6] and in [8] were 0.49 dimensionless ratio and 0.42 dimensionless ratio, respectively.

In the case of `CC(C)C[C@H](NC(=O)c1cc(Cn2cncn2)on1)C(=O)N[C@@H](Cc1ccccc1)C(=O)N[C@@H](CC(C)C)C(=O)[C@@]1(C)CO1`, the half-inhibitory concentration (IC50) in data set [1] was 13 nM; in data set [3], 62 nM; in data set [4], greater than 1000 nM; in data set [5], 35 nM. This molecule also showed a solubility in data set [9] of no less than 1000 µg/mL. The same molecule yielded an Activity with Mus musculus [10] of 105%.

Take `COC[C@H](NC(=O)c1cc(C)on1)C(=O)N[C@H](C(=O)N[C@@H](CC(C)C)C(=O)[C@@]1(C)CO1)C(C)C`: the IC50 amounted to 44 nM in data set [1], 147 nM in data set [3], 636 nM in data set [4] and 57 nM in data set [5]. In data set [2], the remaining at 0.25 h, 4 µM was 95%. The hepatic extraction ratio at 1 µM in data set [6] amounted to 0.79 dimensionless ratio; in data set [8] it was 0.63 dimensionless ratio. In the data set with Mus musculus [7], this molecule yielded an Activity of 12%.

In the case of `COC[C@H](NC(=O)c1cc(C)on1)C(=O)N[C@@H](CC(C)C)C(=O)N[C@@H](CC(C)C)C(=O)[C@@]1(C)CO1`, the concentration for half-maximal inhibition (IC50) in [1] was 20 nM; in data set [3] it was 41 nM; in [4], 366 nM; in data set [5] it was 45 nM. In addition, the remaining at 0.25 h, 4 µM in data set [2] was 90%. Moreover, the hepatic extraction ratio at 1 µM came out at 0.45 dimensionless ratio in data set [6] and 0.83 dimensionless ratio in data set [8]. This molecule had an Activity in the data set with Mus musculus [7] of 37%.

For `COC[C@H](NC(=O)c1cc(C)on1)C(=O)N[C@@H](COC)C(=O)N[C@@H](Cc1ccccc1)C(=O)[C@@]1(C)CO1`, the IC50 in [1] came to 24 nM; in [3] it was 35 nM; in data set [4], 155 nM; in data set [11], 21 nM; in data set [5], 17 nM; in data set [13], 11 nM. The remaining at 0.25 h, 4 µM in [2] is 90%. Besides, in the data set with Mus musculus [12], the Activity came out at 43%. The hepatic extraction ratio at 1 µM in data set [6] and in data set [8] was 0.59 dimensionless ratio in each case.

Consider `COC[C@H](NC(=O)c1cc(C)on1)C(=O)N[C@@H](Cc1cscn1)C(=O)N[C@@H](CC(C)C)C(=O)[C@@]1(C)CO1`, for which the half-maximal inhibitory concentration (IC50) in [1] amounted to 16 nM; in data set [3], 25 nM; in data set [4], 367 nM; in data set [5], 17 nM. Besides, the remaining at 0.25 h, 4 µM in data set [2] is 100%. Further, the results for the hepatic extraction ratio at 1 µM in data set [6] and in data set [8] were 0.86 dimensionless ratio and 0.85 dimensionless ratio, respectively. The Activity in the data set on Mus musculus [7] was 39%.

As for `CC(C)C[C@H](NC(=O)c1cc(CN2CCN(C)CC2)on1)C(=O)N[C@@H](Cc1ccccc1)C(=O)N[C@@H](CC(C)C)C(=O)[C@@]1(C)CO1`, the IC50 in data set [1] is 94 nM; in [3], 124 nM; in [4] it was greater than 1000 nM; in data set [5], 189 nM. The remaining at 0.25 h, 4 µM in data set [2] was 40%. The same molecule yielded a solubility in data set [9] of no less than 1000 µg/mL. This molecule gave an Activity in the data set on Mus musculus [10] of 101%.

Take `COC[C@H](NC(=O)c1ccon1)C(=O)N[C@@H](COC)C(=O)N[C@@H](CC(C)C)C(=O)[C@@]1(C)CO1`: the IC50 was found to be 43 nM in data set [1]; 168 nM in [3]; 260 nM in data set [4]; 607 nM in data set [11]; 37 nM in [5]; 48 nM in [13]. Moreover, in [2], the remaining at 0.25 h, 4 µM was 90%. Also, in the data set with Mus musculus [12], the Activity came to 14%. Besides, the hepatic extraction ratio at 1 µM stood at 0.39 dimensionless ratio in [6] and 0.16 dimensionless ratio in data set [8].

`CC(C)C[C@H](NC(=O)[C@H](Cc1ccccc1)NC(=O)c1cnccn1)B(O)O` [BORTEZOMIB]: the midpoint of inhibition in [13], the IC50, lay at 8.7 nM.

As for `COC[C@H](NC(=O)c1cc(OC)no1)C(=O)N[C@@H](COC)C(=O)N[C@@H](Cc1ccccc1)C(=O)[C@@]1(C)CO1`, the IC50 in data set [1] came out at 50 nM; in data set [3], 10 nM; in [4] it was 269 nM; in data set [11], 36 nM; in [5], 12 nM; in data set [13], 14 nM. Besides, the remaining at 0.25 h, 4 µM in [2] is 100%. Further, the Activity in the data set on Mus musculus [12] amounted to 19%. Moreover, the hepatic extraction ratio at 1 µM in data set [6] amounted to 0.54 dimensionless ratio; in [8], 0.64 dimensionless ratio.

Turning to `COC[C@H](NC(=O)c1cc(C)on1)C(=O)N[C@@H](Cc1ccsc1)C(=O)N[C@@H](CC(C)C)C(=O)[C@@]1(C)CO1`, the 50% inhibitory concentration (IC50) in data set [1] worked out at 9.2 nM; in data set [3] it was 46 nM; in data set [4] it was 181 nM; in data set [5] it was 25 nM. Besides, the remaining at 0.25 h, 4 µM in data set [2] is 90%. Further, the figures for the hepatic extraction ratio at 1 µM in data set [6] and in [8] were 0.95 dimensionless ratio and 0.87 dimensionless ratio, respectively. Moreover, in the data set on Mus musculus [7], the Activity is on record as 117%.

Consider `CCOc1cc(C(=O)N[C@@H](COC)C(=O)N[C@@H](COC)C(=O)N[C@@H](CC(C)C)C(=O)[C@@]2(C)CO2)no1`, for which the 50% inhibitory concentration (IC50) in data set [1] stood at 3.1 nM; in data set [3], 35 nM; in data set [4] it was 66 nM; in data set [11], 41 nM; in data set [5], 5.4 nM; in [13] it was 9.3 nM. Further, the remaining at 0.25 h, 4 µM in data set [2] is 70%. In the data set with Mus musculus [12], this molecule came in with an Activity of 4%. Further, the hepatic extraction ratio at 1 µM in data set [6] and in data set [8] was 0.69 dimensionless ratio in each case.

Consider `COC[C@H](NC(=O)c1cc(OC)no1)C(=O)N[C@@H](COC)C(=O)N[C@@H](CC(C)C)C(=O)[C@@]1(C)CO1`, for which the 50% inhibitory concentration (IC50) was 11 nM in data set [1]; 32 nM in data set [3]; 82 nM in data set [4]; 22 nM in [11]; 12 nM in [5]; 23 nM in data set [13]. In addition, in [2], the remaining at 0.25 h, 4 µM was 35%. In addition, the Activity with Mus musculus [12] was 21%. For the same molecule, the figures for the hepatic extraction ratio at 1 µM in data set [6] and in [8] were 0.37 dimensionless ratio and 0.4 dimensionless ratio, respectively.

As for `Cc1cc(C(=O)N[C@@H](Cc2cscn2)C(=O)N[C@@H](Cc2ccccc2)C(=O)N[C@@H](CC(C)C)C(=O)[C@@]2(C)CO2)no1`, the 50% inhibitory concentration (IC50) was determined as 6.7 nM in data set [1], 56 nM in data set [3], 77 nM in data set [4] and 15 nM in data set [5]. Further, the remaining at 0.25 h, 4 µM in data set [2] was 20%. The same molecule showed an Activity with Mus musculus [12] of 63%.
